# Measured values: ChEMBL document CHEMBL5209569, “Membrane potential based assay for SLC6A8 using HEK-293 JumpIN SLC6A8 OE cells” (2022)
# Target: T1, Sodium- and chloride-dependent creatine transporter 1 (Homo sapiens, UniProt P48029)
# T1 sequence (P48029 whole entry): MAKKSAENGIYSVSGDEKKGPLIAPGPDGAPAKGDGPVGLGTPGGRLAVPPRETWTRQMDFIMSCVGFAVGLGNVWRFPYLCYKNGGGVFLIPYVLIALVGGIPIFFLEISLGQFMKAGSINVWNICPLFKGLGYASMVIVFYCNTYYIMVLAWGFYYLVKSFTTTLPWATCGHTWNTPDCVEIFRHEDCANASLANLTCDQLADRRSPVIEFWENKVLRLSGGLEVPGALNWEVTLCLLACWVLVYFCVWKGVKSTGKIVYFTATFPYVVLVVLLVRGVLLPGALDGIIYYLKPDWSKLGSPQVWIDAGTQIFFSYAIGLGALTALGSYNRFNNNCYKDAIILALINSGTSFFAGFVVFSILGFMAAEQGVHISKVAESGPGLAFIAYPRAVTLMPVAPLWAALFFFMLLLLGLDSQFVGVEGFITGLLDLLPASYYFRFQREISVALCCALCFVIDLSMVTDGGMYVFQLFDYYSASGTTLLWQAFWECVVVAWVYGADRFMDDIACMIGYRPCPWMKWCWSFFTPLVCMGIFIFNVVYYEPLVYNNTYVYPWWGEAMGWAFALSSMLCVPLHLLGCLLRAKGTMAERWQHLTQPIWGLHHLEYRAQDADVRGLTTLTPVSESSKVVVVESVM
# Test: Substrate uptake by the Sodium- and Chloride-Dependent Creatine Transporter 1 (CRTR, SLC6A8) as assessed by the fluorescent FLIPR membrane potential dye in HEK-293 JumpIN-SLC6A8 cells (PubChem AID: 1794823)
# Assay type: functional, cell-based, HEK293
smiles,measurement,value
CN(CC(=O)O)C(=N)N [CREATINE],EC50,5 µM
